Measurements from PubChem BioAssay AID248 (DTP/NCI, 2004).
“And” between values parts separate entries of the source, which are not always exact repeats. Identical values can stand only once. Toxic doses and inconclusive results are not listed.

Test system: L1210 leukemia ip in BDF1 mice, survival T/C
Test: NCI In Vivo Anticancer Drug Screen. Data for tumor model L1210 Leukemia (intraperitoneal) in B6D2F1 (BDF1) mice
Settings: endpoint: mean survival time, higher = longer survival
In short: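 Mice bearing the transplanted tumor received compound or vehicle. Survival of the treated group was divided by that of the vehicle-treated control group to give the ratio.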

[1] = dose: 100.0 mg/kg/injection, schedule: Q01DX009 (ip), vehicle: saline with Tween-80
[2] = dose: 100.0 mg/kg/injection, schedule: Q04DX002 (ip), vehicle: saline with Tween-80
[3] = dose: 200.0 mg/kg/injection, schedule: Q01DX009 (ip), vehicle: saline with Tween-80
[4] = dose: 200.0 mg/kg/injection, schedule: Q04DX002 (ip), vehicle: saline with Tween-80
[5] = dose: 400.0 mg/kg/injection, schedule: Q01DX009 (ip), vehicle: saline with Tween-80
[6] = dose: 400.0 mg/kg/injection, schedule: Q04DX002 (ip), vehicle: saline with Tween-80
[7] = dose: 75.0 mg/kg/injection, schedule: Q01DX001 (ip), vehicle: carboxymethylcellulose (CMC)
[8] = dose: 100.0 mg/kg/injection, schedule: Q01DX001 (ip), vehicle: carboxymethylcellulose (CMC)
[9] = dose: 200.0 mg/kg/injection, schedule: Q01DX001 (ip), vehicle: carboxymethylcellulose (CMC)
[10] = dose: 100.0 mg/kg/injection, schedule: Q01DX009 (ip), vehicle: Klucel (hydroxypropylcellulose) (HPC)
[11] = dose: 200.0 mg/kg/injection, schedule: Q01DX009 (ip), vehicle: Klucel (hydroxypropylcellulose) (HPC)
[12] = dose: 400.0 mg/kg/injection, schedule: Q01DX009 (ip), vehicle: Klucel (hydroxypropylcellulose) (HPC)
[13] = dose: 100.0 mg/kg/injection, schedule: Q04DX003 (ip), vehicle: Klucel (hydroxypropylcellulose) (HPC)
[14] = dose: 200.0 mg/kg/injection, schedule: Q04DX003 (ip), vehicle: Klucel (hydroxypropylcellulose) (HPC)
[15] = dose: 400.0 mg/kg/injection, schedule: Q04DX003 (ip), vehicle: Klucel (hydroxypropylcellulose) (HPC)
[16] = dose: 100.0 mg/kg/injection, schedule: Q04DX003 (ip), vehicle: other
[17] = dose: 200.0 mg/kg/injection, schedule: Q04DX003 (ip), vehicle: other
[18] = dose: 400.0 mg/kg/injection, schedule: Q04DX003 (ip), vehicle: other

SMILES: ClCC1=NCCN1
- T/C (dose: 12.5 mg/kg/injection, schedule: Q04DX002 (ip), vehicle: Klucel (hydroxypropylcellulose) (HPC)): 97 % of control
- T/C (dose: 25.0 mg/kg/injection, schedule: Q04DX002 (ip), vehicle: Klucel (hydroxypropylcellulose) (HPC)): 97 % of control
- T/C (dose: 50.0 mg/kg/injection, schedule: Q04DX002 (ip), vehicle: Klucel (hydroxypropylcellulose) (HPC)): 97 % of control

SMILES: CCOC(=O)C1Oc2ccccc2O1
- T/C [1]: 105 % of control
- T/C [2]: 113 % of control
- T/C [3]: 99 % of control
- T/C [4]: 100 % of control
- T/C [5]: 101 % of control
- T/C [6]: 97 % of control

SMILES: CNC(=O)Nc1ncn[nH]1
- T/C [7]: 103 % of control
- T/C (dose: 150.0 mg/kg/injection, schedule: Q01DX001 (ip), vehicle: carboxymethylcellulose (CMC)): 98 % of control
- T/C (dose: 300.0 mg/kg/injection, schedule: Q01DX001 (ip), vehicle: carboxymethylcellulose (CMC)): 104 % of control

SMILES: COc1cc(N(CCCl)CCCl)c(OC)cc1C=Nc1cccc(Br)c1
- T/C (dose: 26.6 mg/kg/injection, schedule: Q01DX009 (ip), vehicle: carboxymethylcellulose (CMC)): 105 % of control
- T/C (dose: 40.0 mg/kg/injection, schedule: Q01DX009 (ip), vehicle: carboxymethylcellulose (CMC)): 96 % of control
- T/C [8]: 120 % of control
- T/C [9]: 107 % of control
- T/C (dose: 266.0 mg/kg/injection, schedule: Q01DX001 (ip), vehicle: carboxymethylcellulose (CMC)): 157 % of control

SMILES: CC(=O)CC(C)=O.CCCCC(C[C-]=O)N(CC)CC.[Pd+2] (stereo not drawn)
- T/C (dose: 2.4 mg/kg/injection, schedule: Q04DX003 (ip), vehicle: distilled water + Tween-80): 97 % of control
- T/C (dose: 4.7 mg/kg/injection, schedule: Q04DX003 (ip), vehicle: distilled water + Tween-80): 101 % of control
- T/C (dose: 9.4 mg/kg/injection, schedule: Q04DX003 (ip), vehicle: distilled water + Tween-80): 98 % of control
- T/C (dose: 18.8 mg/kg/injection, schedule: Q04DX003 (ip), vehicle: distilled water + Tween-80): 90 % of control

SMILES: CC1(O)C(c2ccccc2)=Nc2ccccc21 (stereo not drawn)
- T/C [2]: 95 % of control
- T/C [4]: 113 % of control
- T/C [6]: 92 % of control

SMILES: C#CCCOC(=O)Nc1ccccc1
- T/C [10]: 96 % of control
- T/C [11]: 96 % of control
- T/C [12]: 102 % of control

SMILES: O=C(N/N=C/c1cccnc1)c1cccc([N+](=O)[O-])c1
- T/C [10]: 89 % of control
- T/C [11]: 95 % of control
- T/C [12]: 101 % of control

SMILES: CCN(C(=O)c1ccc(Cl)cc1Cl)c1ccccc1C
- T/C [10]: 98 % of control
- T/C [13]: 97 % of control
- T/C [11]: 96 % of control
- T/C [14]: 108 % of control
- T/C [12]: 101 % of control
- T/C [15]: 98 % of control

SMILES: Nc1ccc2nc3ccc(=O)cc-3n(-c3ccccc3)c2c1
- T/C (dose: 0.5 mg/kg/injection, schedule: Q01DX Z (ip), vehicle: methylcellulose (MC)): 108 % of control
- T/C (dose: 0.9 mg/kg/injection, schedule: Q01DX Z (ip), vehicle: methylcellulose (MC)): 96 % of control and 103 % of control
- T/C (dose: 1.0 mg/kg/injection, schedule: Q01DX Z (ip), vehicle: methylcellulose (MC)): 112 % of control
- T/C (dose: 1.4 mg/kg/injection, schedule: Q01DX Z (ip), vehicle: methylcellulose (MC)): 109 % of control and 110 % of control
- T/C (dose: 2.0 mg/kg/injection, schedule: Q01DX Z (ip), vehicle: methylcellulose (MC)): 116 % of control
- T/C (dose: 2.1 mg/kg/injection, schedule: Q01DX Z (ip), vehicle: methylcellulose (MC)): 107 % of control and 119 % of control
- T/C (dose: 3.2 mg/kg/injection, schedule: Q01DX Z (ip), vehicle: methylcellulose (MC)): 105 % of control and 122 % of control
- T/C (dose: 5.0 mg/kg/injection, schedule: Q01DX001 (ip), vehicle: carboxymethylcellulose (CMC)): 96 % of control
- T/C (dose: 10.0 mg/kg/injection, schedule: Q01DX001 (ip), vehicle: carboxymethylcellulose (CMC)): 105 % of control
- T/C (dose: 20.0 mg/kg/injection, schedule: Q01DX001 (ip), vehicle: carboxymethylcellulose (CMC)): 111 % of control
- T/C (dose: 40.0 mg/kg/injection, schedule: Q01DX001 (ip), vehicle: carboxymethylcellulose (CMC)): 113 % of control

SMILES: CCN(CC)CCN(C#N)Cc1ccccc1
- T/C [7]: 102 % of control

SMILES: CC1CC(C)NC(=O)N1 (stereo not drawn)
- T/C (dose: 50.0 mg/kg/injection, schedule: Q04DX002 (ip), vehicle: saline with Tween-80): 98 % of control
- T/C [2]: 94 % of control
- T/C [4]: 91 % of control
- T/C [6]: 98 % of control

SMILES: COC(=O)c1ncccc1C(=O)O
- T/C (dose: 50.0 mg/kg/injection, schedule: Q01DX009 (ip), vehicle: saline with Tween-80): 96 % of control
- T/C [1]: 93 % of control

SMILES: COC(=O)C(NC(=O)c1ccccc1)C(C)(C)SCc1ccccc1 (stereo not drawn)
- T/C [16]: 92 % of control
- T/C [17]: 96 % of control
- T/C [18]: 92 % of control

SMILES: O=C(CC(O)(C(F)(F)F)C(F)(F)F)c1cc(Cl)ccc1Cl
- T/C (dose: 100.0 mg/kg/injection, schedule: Q04DX003 (ip), vehicle: saline with Tween-80): 112 % of control
- T/C (dose: 200.0 mg/kg/injection, schedule: Q04DX003 (ip), vehicle: saline with Tween-80): 105 % of control
- T/C (dose: 400.0 mg/kg/injection, schedule: Q04DX003 (ip), vehicle: saline with Tween-80): 103 % of control

SMILES: CCC(C)C(C=NCC(CCN(C)C)(c1ccc2ccccc2c1)C(C)CC)(CCN(C)C)c1ccc2ccccc2c1 (stereo not drawn)
- T/C (dose: 12.5 mg/kg/injection, schedule: Q04DX002 (ip), vehicle: saline + alcohol): 92 % of control
- T/C (dose: 12.5 mg/kg/injection, schedule: Q04DX002 (ip), vehicle: saline with Tween-80): 92 % of control
- T/C (dose: 25.0 mg/kg/injection, schedule: Q04DX002 (ip), vehicle: saline + alcohol): 92 % of control

SMILES: CC(=O)OC1C(OCc2ccccc2)OC(COCc2ccccc2)C(OC2OC(COCc3ccccc3)C(OCc3ccccc3)C(OCc3ccccc3)C2OCc2ccccc2)C1OCc1ccccc1 (stereo not drawn)
- T/C (dose: 5.31 mg/kg/injection, schedule: Q01DX009 (ip), vehicle: Klucel (hydroxypropylcellulose) (HPC)): 97 % of control
- T/C (dose: 10.62 mg/kg/injection, schedule: Q01DX009 (ip), vehicle: Klucel (hydroxypropylcellulose) (HPC)): 94 % of control
- T/C (dose: 12.5 mg/kg/injection, schedule: Q04DX003 (ip), vehicle: Klucel (hydroxypropylcellulose) (HPC)): 87 % of control and 92 % of control
- T/C (dose: 21.25 mg/kg/injection, schedule: Q01DX009 (ip), vehicle: Klucel (hydroxypropylcellulose) (HPC)): 94 % of control
- T/C (dose: 25.0 mg/kg/injection, schedule: Q04DX003 (ip), vehicle: Klucel (hydroxypropylcellulose) (HPC)): 87 % of control
- T/C (dose: 50.0 mg/kg/injection, schedule: Q04DX003 (ip), vehicle: Klucel (hydroxypropylcellulose) (HPC)): 87 % of control and 88 % of control
- T/C (dose: 75.0 mg/kg/injection, schedule: Q04DX003 (ip), vehicle: other): 91 % of control
- T/C (dose: 85.0 mg/kg/injection, schedule: Q01DX009 (ip), vehicle: Klucel (hydroxypropylcellulose) (HPC)): 86 % of control
- T/C (dose: 115.0 mg/kg/injection, schedule: Q04DX003 (ip), vehicle: other): 91 % of control
- T/C (dose: 170.0 mg/kg/injection, schedule: Q04DX003 (ip), vehicle: other): 93 % of control

SMILES: O=[N+]([O-])c1ccc(C=Nc2ccc(OCc3ccccc3)cc2)s1
- T/C [13]: 91 % of control
- T/C [14]: 88 % of control
- T/C [15]: 91 % of control

SMILES: O=C(/C=C/c1ccccc1)NC(=S)Nc1ccc(O)cc1
- T/C (dose: 100.0 mg/kg/injection, schedule: Q01DX001 (ip), vehicle: saline with Tween-80): 96 % of control
- T/C [1]: 95 % of control and 107 % of control
- T/C [2]: 111 % of control and 88 % of control
- T/C (dose: 200.0 mg/kg/injection, schedule: Q01DX001 (ip), vehicle: saline with Tween-80): 98 % of control
- T/C [3]: 96 % of control and 92 % of control
- T/C [4]: 95 % of control and 111 % of control
- T/C (dose: 400.0 mg/kg/injection, schedule: Q01DX001 (ip), vehicle: saline with Tween-80): 96 % of control
- T/C [5]: 101 % of control
- T/C [6]: 95 % of control

SMILES: NC(=S)NO
- T/C (dose: 50.0 mg/kg/injection, schedule: Q04DX003 (ip), vehicle: other): 101 % of control
- T/C [16]: 107 % of control
- T/C [17]: 104 % of control
- T/C [18]: 96 % of control

SMILES: CCOC(=O)c1c(O)c(C(=O)O)cc2ccccc12
- T/C (dose: 50.0 mg/kg/injection, schedule: Q01DX001 (ip), vehicle: carboxymethylcellulose (CMC)): 106 % of control
- T/C [8]: 108 % of control
- T/C [9]: 106 % of control
- T/C (dose: 400.0 mg/kg/injection, schedule: Q01DX001 (ip), vehicle: carboxymethylcellulose (CMC)): 106 % of control
